For one data set, the system named is A549. The data set can be described thus: Cytotoxicity against human A549 cells after 48 hrs by neutral red uptake assay. It counts as cell-based. Conditions: a549, 48 h.
The subject of the next data set is MDCK. The data set can be described thus: Cytotoxicity against MDCK cells after 48 hrs by neutral red uptake assay. It counts as cell-based, Canis lupus familiaris. Conditions: dog.

Consider `COc1sccc1-c1cc(CNC23CC4CC(CC(C4)C2)C3)no1`, for which the figures for the CC50 with A549 and in the data set with MDCK were 35.5 µM and 30.6 µM, respectively. For `CSc1ccccc1-c1cc(CNC23CC4CC(CC(O)(C4)C2)C3)no1`, in that order: 102 µM and 59.3 µM. With `OC12CC3CC(C1)CC(NCc1cc(-c4ccccc4Cl)on1)(C3)C2`, the CC50 came out at 143 µM in the data set with A549 and 64.1 µM in the data set on MDCK. Take `Clc1cc(-c2cc(CNC34CC5CC(CC(C5)C3)C4)no2)c(Cl)s1`: the 50% cytotoxic concentration (CC50) came out at 61.4 µM in the data set with A549 and 39.3 µM in the data set with MDCK. In turn, `OC12CC3CC(C1)CC(NCc1cc(-c4cc(Cl)sc4Cl)on1)(C3)C2` returned a CC50 in the data set with MDCK of 87.6 µM. For the molecule `Clc1cc(-c2cc(CNC34CC5CC(CC(C5)C3)C4)no2)cs1`, the figures for the CC50 in the data set with A549 and with MDCK were 52.6 µM and 35.6 µM, respectively.

As for `Oc1ccccc1-c1cc(CNC23CC4CC(CC(C4)C2)C3)no1`, the CC50 in the data set with A549 stood at 78.2 µM; in the data set with MDCK, 73.7 µM.

One may read the CC50 as the concentration that lowers cell viability or growth by half. High values mean lower toxicity to the cells, low ones greater toxicity to the cells.

The values above are taken from ChEMBL document CHEMBL3997811.
